What was measured:
Format in all cases: binding
[1] = biological target: T1, αβ heterodimer of HsIDH3 (mutant form αMβ) (Homo sapiens, UniProt O43837+P50213, P50213:Q166A); assay: biolayer interferometry, biotinylated protein on streptavidin sensor
T1 construct: gene IDH3A; coexpressed alpha and beta-TEV-His6 (pQlinkN), E. coli BL21(DE3) Codon-Plus, His6 tag cleaved with TEV; 1:1 heterodimer, mutant is heterotetramer (αMβ)2 of 131-149 kDa

[2] = biological target: T1, αβ heterodimer of HsIDH3 (mutant form αMβ); assay: X-ray crystal structure, […] Å; details: Mg2+ at active site; ADP at pseudo-allosteric site of beta subunit
[3] = biological target: T2, αγ heterodimer of HsIDH3 (mutant form αMγ) (Homo sapiens, UniProt P50213+P51553, P50213:Q166A); assay: X-ray crystal structure, […] Å; details: allosteric site of gamma subunit
T2 construct: gene IDH3A; coexpressed alpha and gamma-TEV-His6 (pQlinkN), E. coli BL21(DE3) Codon-Plus, His6 tag cleaved with TEV; 1:1 heterodimer, mutant is heterotetramer (αMγ)2 of 131-149 kDa
T2 sequence (P50213 28-366 Q166A): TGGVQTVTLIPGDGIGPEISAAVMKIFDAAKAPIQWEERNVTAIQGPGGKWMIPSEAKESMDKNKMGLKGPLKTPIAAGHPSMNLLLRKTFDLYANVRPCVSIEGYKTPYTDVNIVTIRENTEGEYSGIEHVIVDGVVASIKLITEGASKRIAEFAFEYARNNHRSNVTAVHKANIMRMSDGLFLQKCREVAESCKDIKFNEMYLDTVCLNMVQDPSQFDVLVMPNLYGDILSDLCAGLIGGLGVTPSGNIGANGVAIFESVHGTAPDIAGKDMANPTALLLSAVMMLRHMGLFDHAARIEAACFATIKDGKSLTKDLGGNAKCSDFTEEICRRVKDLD
T2 sequence (P51553 40-393): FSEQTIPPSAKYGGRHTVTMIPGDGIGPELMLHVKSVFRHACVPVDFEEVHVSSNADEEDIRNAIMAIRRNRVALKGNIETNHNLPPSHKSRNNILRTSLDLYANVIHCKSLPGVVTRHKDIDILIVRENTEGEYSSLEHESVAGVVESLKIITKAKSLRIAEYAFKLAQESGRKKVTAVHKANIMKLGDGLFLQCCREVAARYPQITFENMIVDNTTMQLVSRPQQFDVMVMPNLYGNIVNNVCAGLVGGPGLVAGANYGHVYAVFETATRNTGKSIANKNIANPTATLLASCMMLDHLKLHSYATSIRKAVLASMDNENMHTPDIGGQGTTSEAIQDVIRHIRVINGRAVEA

T1 sequence (O43837 35-385 limits assumed, one chain of several): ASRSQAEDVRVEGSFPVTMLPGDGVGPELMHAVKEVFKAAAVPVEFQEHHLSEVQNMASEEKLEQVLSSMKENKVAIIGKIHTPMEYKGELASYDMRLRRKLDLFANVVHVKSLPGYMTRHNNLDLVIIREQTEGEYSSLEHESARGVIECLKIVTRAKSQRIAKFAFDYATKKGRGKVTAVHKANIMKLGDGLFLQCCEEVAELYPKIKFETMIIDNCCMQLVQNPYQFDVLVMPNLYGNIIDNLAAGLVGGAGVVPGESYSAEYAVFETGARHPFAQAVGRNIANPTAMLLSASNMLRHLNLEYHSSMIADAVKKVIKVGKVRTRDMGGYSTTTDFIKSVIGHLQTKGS

Kd [1] [µM] | Structure (SMILES) | X-ray crystal structure, 2.70 Å [2] | X-ray crystal structure, 2.50 Å [3]
522 ± 10 | Nc1ncnc2c1ncn2[C@@H]1O[C@H](COP(=O)(O)OP(=O)(O)O)[C@@H](O)[C@H]1O [ADP] | an ADP bound at the pseudo-allosteric site in the β subunit | 
 | O=C(O)CC(O)(CC(=O)O)C(=O)O [CIT] |  | there is a CIT bound at the allosteric site in the γ subunit
